Data published in patent US8722863B2, “Solid state forms of fidaxomycin and processes for preparation thereof” (Teva Pharmaceutical Works Ltd., priority 2012, dated 2014).

Key:
Clostridium difficile = settings: cited from earlier work
[1] = stability under extreme conditions; assay type: physicochemical
Description: As discussed above, Form C of Fidaxomycin has advantageous properties. In particular, Form C of Fidaxomycin of the present invention can be reproduced in a high quality, i.e., chemical and polymorphical purity. The X-ray powder diffraction pattern of Form C is obtained in high crystallinity, as indicated by a high resolution PXRD pattern with relatively sharp, defined peaks. In addition, Form C is stable under extreme conditions.

[2] = hygroscopicity test according to the European pharmacopeia 5.11; assay type: physicochemical; settings: Ph. Eur. chapter 5.11 hygroscopicity test
Description: As used herein and unless indicated otherwise, the term “non-hygroscopic” in relation to crystalline Fidaxomycin refers to less than 0.5%, and preferably less than 0.2% (w/w) absorption of water, for example atmospheric water, by the crystalline Fidaxomycin, as determined according to Ph. Eur. chapter 5.11 (“Hygroscopicity”).
As discussed above, Fidaxomycin Form Z1 has advantageous properties. In particular, the crystalline Fidaxomycin Form Z1 of the present invention is non-hygroscopic. When performing the hygroscopicity test according to the European pharmacopeia 5.11, the mass increase of Form Z1 was below about 0.2%. The advantageous of form Z1 as non-hygroscopic material provides better processing of Fidaxomycin in formulation. e.g., being less sticky and stable following granulation procedure.

[3] = stability in formulations; assay type: physicochemical; settings: retains the anhydrous polymorph
Description: The ability to retain the anhydrous polymorph provides an opportunity to improve the performance characteristic in formulation e.g. dissolution profile and bioavailability.

CCc1c(Cl)c(O)c(Cl)c(O)c1C(=O)O[C@H]1[C@H](O)[C@H](OC)[C@H](OC/C2=C\C=C\C[C@H](O)/C(C)=C/[C@H](CC)[C@@H](O[C@@H]3OC(C)(C)[C@@H](OC(=O)C(C)C)[C@H](O)[C@@H]3O)/C(C)=C/C(C)=C/C[C@@H]([C@@H](C)O)OC2=O)O[C@@H]1C [Fidaxomycin, 3-(((6-Deoxy-4-O-(3,5-dichloro-2-ethyl-4,6-dihydroxybenzoyl)-2-O-methyl-β-D-mannopyranosyl)oxy)-methyl)-12(R)-[(6-deoxy-5-C-methyl-4-O-(2-methyl-1-oxopropyl)-b-D-lyxo-hexopyranosyl)oxy]-11(S)-ethyl-8(S)-hydroxy-18(S)-(1(R)-hydroxyethyl)-9,13,15-trimethyloxacyclooctadeca-3,5,9,13,15-pentaene-2-one]
activity against Clostridium difficile (Clostridium difficile): shows activity

CCc1c(Cl)c(O)c(Cl)c(O)c1C(=O)O[C@H]1[C@H](O)[C@H](OC)[C@H](OC/C2=C\C=C\C[C@H](O)/C(C)=C/[C@H](CC)[C@@H](O[C@@H]3OC(C)(C)[C@@H](OC(=O)C(C)C)[C@H](O)[C@@H]3O)/C(C)=C/C(C)=C/C[C@@H]([C@@H](C)O)OC2=O)O[C@@H]1C [Form C]
stability under extreme conditions [1]: stable

CCc1c(Cl)c(O)c(Cl)c(O)c1C(=O)O[C@H]1[C@H](O)[C@H](OC)[C@H](OC/C2=C\C=C\C[C@H](O)/C(C)=C/[C@H](CC)[C@@H](O[C@@H]3OC(C)(C)[C@@H](OC(=O)C(C)C)[C@H](O)[C@@H]3O)/C(C)=C/C(C)=C/C[C@@H]([C@@H](C)O)OC2=O)O[C@@H]1C [Form Z1]
mass increase (hygroscopicity) [2]: below 0.2% | stability in formulations [3]: excellent stability
